Source: patent publication US10376520B2, “Methods for the treatment of cardiovascular disorders” (Galapagos NV, priority 2015, dated 2019)

Key:
RA patients = assay: Plasma CETP concentration (ELISA), Study 4; assay type: in vivo, human; settings: for CETP level, 4 weeks CFB: 4 weeks change from baseline
Method: Randomized double-blind, placebo-controlled add on study in subjects with active RA who have an inadequate response to MTX monotherapy, in combination with methotrexate, administered for 4 weeks in the treatment of subjects with active rheumatoid arthritis who have an inadequate response to methotrexate alone.
Compound 1 (dosed as a [Compound 1:HCl:3H2O]) capsules administered orally in 30 mg, 75 mg, 150 mg, or 300 mg doses per day for 4 weeks.
Plasma CETP concentration was determined using a commercial available ELISA kit from Alpco (26-G Keewaydin Drive, Salem, N.H. 03079 USA) according to manufacturer's instruction. Catalogue number 47-CETH-E01, lot number used: 812RCL.

[1] = system: Japanese and Caucasian healthy subjects; assay: [HDL] determination, Study 3 (healthy volunteers); assay type: in vivo, human; settings: 200 mg q.d.
Method: Randomized, double-blind, placebo-controlled study for the assessment of safety, tolerability, pharmacokinetics, and pharmacodynamics, of multiple oral doses of Compound 1 (dosed as a [Compound 1:HCl:3H2O]) in Japanese and Caucasian healthy subjects.
Randomized, double-blind, placebo-controlled, single center, sequential design study.
Compound 1 (dosed as a [Compound 1:HCl:3H2O]) is administered for 10 days as oral film-coated tablet (25 and 100 mg and matching placebos). Placebo are provided as a matching tablet.
The study drug is ingested with 240 mL water after a standardized breakfast on Days 2-9. On PK days (Day 1 and Day 10) the study drug is administered in a fasted state (subjects will receive lunch 4 h after dosing on Day 1 and Day 10).
10 Japanese subjects (6 active, 4 placebo) and 10 Caucasian subjects (6 active, 4 placebo) will receive once daily an oral dose of 200 mg Compound 1 (dosed as a [Compound 1:HCl:3H2O]) or matching placebo as two tablets of 100 mg or matching placebo for 10 days. For practical reasons, these subjects may be split over separate groups, each group consisting of an equal number of Japanese and Caucasian Compound 1 (dosed as a [Compound 1:HCl:3H2O]) treated subjects and Japanese and Caucasian placebo subjects.
This assay relies on a homogeneous enzymatic colorimetric test. In the presence of magnesium ions, dextran sulfate selectively forms water-soluble complexes with LDL, VLDL and chylomicrons which are resistant to PEG-modified enzymes.
The cholesterol concentration of [HDL]-cholesterol is determined enzymatically by cholesterol esterase and cholesterol oxidase coupled with PEG to the amino groups (approx. 40%).
In the presence of peroxidase, the hydrogen peroxide generated reacts with 4-amino-antipyrine and Sodium N-(2-hydroxy-3-sulfopropyl)-3,5-dimethoxyaniline (HSDA) to form a purple-blue dye. The color intensity of this dye is directly proportional to the cholesterol concentration and is measured photometrically.
Human serum and plasma samples [HDL] determination was done on a Roche/Hitachi Cobas c 701/702 system which automatically calculate the analyte concentration of each sample. Samples containing precipitates are centrifuged before performing the assay.

Q: With `O=C(Nc1nc2cccc(-c3ccc(CN4CCS(=O)(=O)CC4)cc3)n2n1)C1CC1` [Compound 1, cyclopropanecarboxylic acid {5-[4-(1,1-dioxo-thiomorpholin-4-ylmethyl)-phenyl]-[1,2,4]triazolo[1,5-a]pyridin-2yl}-amide] as the molecule, how does the “CETP level, 4 weeks CFB” value (RA patients; 30 mg q.d.) read?
A: 2.4%

Q: What about the CETP level, Baseline (RA patients; 30 mg q.d.) of the same molecule?
A: 3.2 µg/mL

Q: And the CETP level, week 4 (RA patients; 30 mg q.d.)?
A: 3.2 µg/mL

Q: What about the “CETP level, 4 weeks CFB” value (RA patients; 75 mg q.d.) of the same molecule?
A: −2.8%

Q: And the CETP level, Baseline (RA patients; 75 mg q.d.)?
A: 2.8 µg/mL

Q: And the CETP level, week 4 (RA patients; 75 mg q.d.)?
A: 2.7 µg/mL

Q: What about the “CETP level, 4 weeks CFB” value (RA patients; 150 mg q.d.) of the same molecule?
A: −11.4%

Q: And the CETP level, Baseline (RA patients; 150 mg q.d.)?
A: 2.8 µg/mL

Q: And the CETP level, week 4 (RA patients; 150 mg q.d.)?
A: 2.3 µg/mL

Q: What about the “CETP level, 4 weeks CFB” value (RA patients; 300 mg q.d.) of the same molecule?
A: −10.2%

Q: And the CETP level, Baseline (RA patients; 300 mg q.d.)?
A: 2.5 µg/mL

Q: What about the CETP level, week 4 (RA patients; 300 mg q.d.) of the same molecule?
A: 2.2 µg/mL

Q: And the “[HDL] % Mean % variation vs baseline 10 days” value ([1]; Caucasian)?
A: 6%

Q: What about the “[HDL] levels” value ([1]; Caucasian, day 0) of the same molecule?
A: 1.5 mmol/L

Q: What about the “[HDL] levels” value ([1]; Caucasian, day 5) of the same molecule?
A: 1.5 mmol/L

Q: What about the “[HDL] levels” value ([1]; Caucasian, day 10) of the same molecule?
A: 1.6 mmol/L

Q: And the “[HDL] levels” value ([1]; Caucasian, day 17)?
A: 1.6 mmol/L

Q: What about the “[HDL] % Mean % variation vs baseline 10 days” value ([1]; Japanese) of the same molecule?
A: 15.6%

Q: What about the “[HDL] levels” value ([1]; Japanese, day 0) of the same molecule?
A: 1.3 mmol/L

Q: What about the “[HDL] levels” value ([1]; Japanese, day 5) of the same molecule?
A: 1.3 mmol/L

Q: What about the “[HDL] levels” value ([1]; Japanese, day 10) of the same molecule?
A: 1.5 mmol/L

Q: And the “[HDL] levels” value ([1]; Japanese, day 17)?
A: 1.4 mmol/L
